The test system of the test is IL-1β release from a mouse microglial cell line. In words: Interleukin-1β microglial cell assay (LPS / IFN gamma). Type of test: cell-based. The settings on record: LPS (10 μg/ml) and IFN gamma (10 ng/ml), 24 hours, read-out: EC50, inhibition of IL-1 beta induction. As for the experimental part:
This assay measures the release of IL-1β from a mouse microglial cell line following an inflammatory challenge with LPS and interferon-gamma. The ability of test articles to inhibit microglial cell activation and IL-1β release is determined by co-incubation of the test article with the inflammatory challenge.
Mouse microglial cells were seeded in poly-D-lysine coated 96-well plates at a density of 10,000 cells/well and allowed to attach for 24 hours. Cells were stimulated by addition of LPS (10 μg/ml) and IFN gamma (10 ng/ml) in the presence or absence of test article. The cells were then incubated for 24 hours at 37° C., after which time the media was removed and used for cytokine determination as described below.
Viability of mouse microglial cells after exposure to the test article was determined using a fluorescent viability dye, Cell Tracker Green. Cell Tracker Green was used at a working concentration of 5 μM in 1×HBSS. Cells were washed once with HBSS (200 μl/well) and 100 μl Cell Tracker Green was added to each well. Cells were then incubated at 37° C. for 30 minutes, after which time the Cell Tracker was removed and the cells were washed once with HBSS (200 μl/well). 100 pl fresh HBSS was added to each well and the plate was read on a Fluoroskan plate reader using an excitation wavelength of 485 nm and an emission wavelength of 538 nm.
1. […]
• The Costar EIA Hi-binding plate was coated with capture antibody at 4 μg/ml. […] Each well was filled to the top, dispensed, and any remaining buffer was removed by inverting the plate and gently blotting against clean paper towels. • Non-specific binding sites were blocked by adding 300 μl of Blocking Buffer to each well, and after sealing incubating for at least 1 hour at room temperature. • After washing the plate was now ready for the samples. […] 100 μl of this Substrate Solution mixture was added to each well and the plate was incubated in the dark for 20 minutes at room temperature. • 50 μl of Stop Solution was added to each well, mixing was ensured by gently tapping. • Each plate was read with the Spectramax once at 450 nm. […]

As for `Cc1c(O)cc2c(c1C)OC(C)(CC/C=C1\SC(=O)NC1=O)CC2` (centres unmarked) [5-[3-(6-Hydroxy-2,7,8-trimethyl-chroman-2-yl)-propylidene]-thiazolidine-2,4-dione], the half-maximal effective concentration (EC50) is at most 20 µM.

With `CC1=NN(c2ccccc2)C(=O)C1C(CCC1(C)CCc2cc(O)c(C)c(C)c2O1)C1C(=O)N(c2ccccc2)N=C1C` (centres unmarked) [1-(6-Hydroxy-2,7,8-trimethyl-chroman-2-yl)-3-bis-(5-methyl-2-phenyl-2,4-dihydro-pyrazol-3-one-4-yl)-propane], the EC50 is at most 20 µM.

A word on the EC50: it is the concentration that produces a half-maximal response.

Source of the values: patent publication US8791155B2, “Chroman derivatives” (Edison Pharmaceuticals, Inc., priority 2003, dated 2014).
